For data set [1], the system named is isolated rabbit thoracic aorta preparations. The data set can be described thus: Assay on vascular tone (vasorelaxation of methoxamine-precontracted aortic rings). The note with it: for EC50: Oryctolagus cuniculus, read-out: EC50 (concentration producing 50% of the maximum relaxation). How it is done: The ability of the compounds of the invention to induce vasorelaxation in comparison to precursor compounds was tested in vitro in isolated rabbit thoracic aorta preparations (Wanstall J. C. et al., Br. J. Pharmacol., 134:463-472, 2001). Male New Zealand rabbits (1,8-2 Kg) were used. The animals were anaesthetized with sodium thiopental (50 mg/kg, iv), sacrificed by exsanguinations and then the thorax was opened and the aorta dissected. The aortas were placed immediately in Krebs-HEPES buffer (pH 7.4; composition mM: NaCl 130.0, Kcl 3.7, […] 14.9, KH2PO4 1.2, MgSO4.7H2O 1.2, Glucose 11.0, HEPES 10.0, CaCl2.2H2O 1.6) and cut into ring segments (4-5 mm in length). Each ring was placed in a 5 ml tissue bath filled with Krebs-HEPES buffer (37° C.) aerated with 95% O2 and 5% CO2 and was then attached to a force transducer (Grass FT03), connected to a BIOPAC MP150 System for measurement of the isometric tension^2. The preparations were allowed to equilibrate for 1 h at a resting tension of 2 g with changes of the buffer every 15 minutes and then stimulated by exposure to 90 mM KCl (3 times) with intervening washings. After equilibration, the rings were precontracted submaximally with methoxamine (3 μM) and, when the contraction reach a steady state a cumulative concentration-response curve to the test compounds was obtained. The time intervals between doses were based on the time needed to reach a full a steady state response.
Responses to test compounds were expressed as a percentage of residual contraction and plotted against concentration of test compound. EC50 values (where EC50 is the concentration producing 50% of the maximum relaxation to the test compound) were interpolated from these plots.

For the next data set, the system named is retinal tissue. The data set can be described thus: Retina protection: morphological analysis, ET-1 induced ischemia. The data set is classed as in vivo, rabbit. Conditions: long term ET-1 treatment; 0.5 mg (equivalent)/eye IVT. How it is done: The eyes of each animal was enucleated, cornea and crystalline were removed and the eyes was paraformaldehyde-fixed. Then samples were dehydrated with increasing alcohol concentration (50°-75°-95°-100°). After 95° alcohol treatment, the eyes were divided into two parts following a longitudinal plain from cornea to insertion of optical nerve. Thus the samples were paraffin-embedded. Section 8 μm thick were stained with Haematoxylin-Eosin. Microscopical fields were registered by digitizing camera applied a light microscope with a 20× and 40× objective. On the digitized images was performed a morphological analysis of retinal tissue.

The test system of the next data set is TNFα. The data set can be described thus: TNFα content in aqueous humor (ELISA), ET-1 induced ischemia. Conditions: ET-1 treated rabbits; 0.5 mg (equivalent)/eye IVT. The data set is classed as in vivo, rabbit. How it is done: (§1) Aqueous humor samples were withdrawn from both anterior and posterior chamber fluids of each eye before ET-1 administration (T0), before the administration of Compound (1) or fluorocinolone acetonide (T2), and at the end of treatments (T6). The same volume of saline were reintroduced every time. The aqueous humor samples were immediately frozen at −80° C. until use.
(§2) Tumor necrosis factor (TNFα) and interleukin 6 (IL-6) were determined in aqueous humor with a commercial kit using an ELISA method (Amersham Pharmacia Biotech). The minimum detectable concentrations were 0.10 pg/ml for IL-6 and TNFα. The interassay coefficient of variation was 0.7% for all assays.
(In general: In an ELISA, binding on a coated surface is turned into a signal by an enzyme label.)

Data set [2] relates to VEGF-induced leakage rat model. Briefly: VEGF-induced retinal vascular leakage rat model (Evans blue). It counts as in vivo. The note with it: VEGF 100 ng/eye. How it is done: Pupils were dilated with 1% topical cyclopentolate hydrochloride to see the needle to guide the intravitreal injection. Recombinant rat vascular endothelial growth factor (VEGF; 100 ng/eye) or VEGF at 100 ng/eye plus test compounds were prepared in 0.5% carboxymethyl cellulose (CMC) in sterile saline and was injected into the vitreous with a 30-gauge needle (Xu, Q., et al. Invest. Ophthalmol. Vis. Sci., 42:789-794, 2001). The compounds of the invention were compared to corresponding steroid cores at equimolar doses. […] Control animals received vehicle. Compound (18) was similarly dosed alongside triamcinolone acetonide for comparison.
Retinal vascular leakage was measured as described previously (Xu, Q., et al. Invest. Ophthalmol. Vis. Sci., 42:789-794, 2001). After about 18 hours post injection of test compounds, rats were anesthetized with ketamine (80 mg/kg) and xylazine (4 mg/kg) IP. Then 45 mg/kg Evans blue (EB) was injected into the jugular vein. The dye was allowed to circulate for 2 hours. The chest cavity was opened and rats then perfused with 1% formalin in 0.5 M citrate buffer (pH 3.5, 37° C.) through the left ventricle. Retinas were carefully dissected from enucleated eyes, placed in pre-weighed Eppendorf tubes, dried in speed vacuum overnight and dry weights recorded. Evans blue was extracted by incubating each retina in 120 μl formamide for 18 hours at 70° C., centrifuged for 2 hours at 6000 rpm. Absorbance of 60 μl of extract was measured at 620 nm and background absorbance was determined at 740 nm. Net absorbance was calculated by subtracting the background 740 nm from that at 620 nm. Measurement of a standard curve of Evans blue in formamide was also done and Evans blue leakage expressed as μl/g/h was calculated as shown below: [EB(ng/ml)×120 (μl)×1000]/[dry weight retina (mg)×circulation time (h)×plasma EB(ng/ml)×100]

The next data set relates to VEGF. Briefly: VEGF content in aqueous humor, ET-1 induced ischemia. The data set is classed as in vivo, rabbit. The note with it: ET-1 treated rabbits; 0.5 mg (equivalent)/eye IVT.
The next data set relates to IL-6. The data set can be described thus: IL-6 content in aqueous humor (ELISA), ET-1 induced ischemia. Conditions: ET-1 treated rabbits; 0.5 mg (equivalent)/eye IVT. The data set is classed as in vivo, rabbit. How it is done: as §1, §2
The next data set has as its system ophthalmic artery. Briefly: Ocular haemodynamics (Color Doppler Imaging, Pourcelot Resistance Index) in ET-1 induced ischemia. It counts as in vivo, rabbit. How it is done:
Haemodynamic evaluations were performed using an eco-color-doppler DynaView TM II SSD-1700 (Aloka Holding Europe AG, Milan, Italy). All animals underwent Color Doppler Imaging (CDI) investigation before ET-1 injection (T0), before the start of drug instillation (T2) and at the end of the drug treatment (T6). Special attention was devoted to the evaluation of ophthalmic and ciliary artery circulation. Blood flow velocities were measured for each vessel and the Pourcelot Resistance Index (RI) was calculated (Galassi F. et al., Acta Opht. Scand Suppl. (2000) 37-38).

The subject of another data set is Brown Norway rats. Briefly: Steroid-induced intraocular pressure (IOP) elevation in rats after intravitreal injection. The note with it: 39.1 μg/eye (25 μg/eye equivalent) intravitreal.
Where [3] appears, read: rabbit aortic rings precontracted with methoxamine 3 μM.

Eight compounds from patent US9012435B2, “Glucocorticoids attached to nitrate esters via an aromatic linker in position 21 and their use in ophthalmology” (Nicox S.A., priority 2008, dated 2015) can be followed below.

SMILES strings stand for the structures. Like-named read-outs stand apart in the source and are kept apart here.

Description for Brown Norway rats: Male Brown Norway rats (250-275 g; Charles River laboratory) were acclimated for a week before IOP measurements. Baseline IOP measurements with Tonolab Tonometer (Tiolat Inc) were done in conscious rats (Pease, M. E., et al J. Glaucoma, 15:512-519, 2006) before intravitreal injection of test compounds. Then the rats were anesthetized with isoflurane inhalation and a drop of 0.5% tetracaine was topically applied on the eyes. Pupils were dilated with 1% topical cyclopentolate hydrochloride and 2.5% phenylephrine HCl to see the needle to aim the intravitreal injection of test compounds. […] For example, to compare to fluocinolone acetonide at both 25 and 50 μg/eye, compound (1) was dosed at 42.4 and 84.7 μg/eye, respectively. The des-nitro analog of compound (1) was dosed at 39.1 μg/eye (equivalent for 25 μg FC). Control animals received vehicle.
Five measurements were averaged for each time point. IOP measurements were taken at one and two weeks after intravitreal injection of test compounds.

With `COc1cc(C(=O)OCCCCO[N+](=O)[O-])ccc1OC(=O)OCC(=O)[C@@]12OC(C)(C)O[C@@H]1CC1C3C[C@H](F)C4=CC(=O)C=C[C@]4(C)[C@@]3(F)[C@@H](O)C[C@@]12C` (stereo partly drawn) [Compound (1), 4-(nitrooxy)butyl 4-((2-((6S,9R,10S,11S,13S,16R,17S)-6,9-difluoro-11-hydroxy-16,17-16,17-(1-methylethylidenebis(oxy))-10,13-dimethyl-3-oxo-6,7,8,9,10,11,12,13,14,15,16,17-dodecahydro-3H-cyclopenta[a]phenanthren-17-yl)-2-oxoethoxy)carbonyloxy)-3-methoxybenzoate], the EC50 in data set [1] came out at 2.2 µM. The “ET-1 induced morphological changes of retinal tissue” value in the data set with retinal tissue is listed as “not equally present”. The “TNFα content in aqueous humor” value in the data set with TNFα turned out to be 18.93 ± 0.98 pg/mL. The “inhibition of VEGF-induced leakage” value in data set [2] (42.4 μg/eye intravitreal (equimolar to 25 μg/eye FC), 18 hours after injection) is 77.1%. Further, the “VEGF content in aqueous humor” value in the data set with VEGF is 105.79 ± 1.98 pg/mL. The “IL6 content in aqueous humor” value with IL-6 is 15.70 ± 1.73 pg/mL. Moreover, the “Resistence Index” value is on record as 0.43 ± 0.08 in the data set with ophthalmic artery (After 2 weeks (before drug instillation, T2)); 0.41 ± 0.03 in the data set on ophthalmic artery (After 6 weeks (end of drug treatment), 0.5 mg (equivalent)/eye IVT); 0.43 ± 0.06 in the data set on ophthalmic artery (Basal).

Take `COc1cc(C(=O)OCCCCC(CO[N+](=O)[O-])O[N+](=O)[O-])ccc1OC(=O)OCC(=O)[C@@]12OC(C)(C)O[C@@H]1CC1C3C[C@H](F)C4=CC(=O)C=C[C@]4(C)[C@@]3(F)[C@@H](O)C[C@@]12C` (stereo partly drawn) [Compound (3), 5,6-bis(nitrooxy)hexyl 4-((2-((6S,9R,10S,11S,13S,16R,17S)-6,9-difluoro-11-hydroxy-16,17-((1-methylethylidene)bis(oxy))-10,13-dimethyl-3-oxo-6,7,8,9,10,11,12,13,14,15,16,17-dodecahydro-3H-cyclopenta[a]phenanthren-17-yl)-2-oxoethoxy)carbonyloxy)-3-methoxybenzoate]: the EC50 in data set [1] (setting [3]) is 0.21 ± 0.07 µM.

For the compound `COc1cc(C(=O)OCCOCCOCCO[N+](=O)[O-])ccc1OC(=O)OCC(=O)[C@@]12OC(C)(C)O[C@@H]1CC1C3C[C@H](F)C4=CC(=O)C=C[C@]4(C)[C@@]3(F)[C@@H](O)C[C@@]12C` (stereo partly drawn) [Compound (5), 2-(2-(2-(nitrooxy)ethoxy)ethoxy)ethyl 4-((2-((6S,9R,10S,11S,13S,16R,17S)-6,9-difluoro-11-hydroxy-16,17-((1-methylethylidene)bis(oxy))-10,13-dimethyl-3-oxo-6,7,8,9,10,11,12,13,14,15,16,17-dodecahydro-3H-cyclopenta[a]phenanthren-17-yl)-2-oxoethoxy)carbonyloxy)-3-methoxybenzoate], in data set [1] (setting [3]), the EC50 is 0.83 ± 0.25 µM.

On to `CC1(C)O[C@@H]2CC3C4C[C@H](F)C5=CC(=O)C=C[C@]5(C)[C@@]4(F)[C@@H](O)C[C@]3(C)[C@]2(C(=O)COC(=O)Oc2cc(C(=O)OCCCCO[N+](=O)[O-])cc(O)c2O)O1` (stereo partly drawn) [Compound (6), 4-(nitrooxy)butyl 3-((2-((6S,9R,10S,11S,13S,16R,17S)-6,9-difluoro-11-hydroxy-16,17-((1-methylethylidene)bis(oxy))-10,13-dimethyl-3-oxo-6,7,8,9,10,11,12,13,14,15,16,17-dodecahydro-3H-cyclopenta[a]phenanthren-17-yl)-2-oxoethoxy)carbonyloxy)-4,5-dihydroxybenzoate], for which, in data set [1] (setting [3]), the EC50 worked out at 1.44 ± 0.41 µM.

Take `CC1(C)O[C@@H]2CC3C4CCC5=CC(=O)C=C[C@]5(C)[C@@]4(F)[C@@H](O)C[C@]3(C)[C@]2(C(=O)COC(=O)Oc2cc(C(=O)OCCCCO[N+](=O)[O-])cc(O)c2O)O1` (stereo partly drawn) [Compound (10), 4-(nitrooxy)butyl 3-((2-((9R,10S,11S,13S,16R,17S)-9-fluoro-11-hydroxy-16,17-((1-methylethylidene)bis(oxy))-10,13-dimethyl-3-oxo-6,7,8,9,10,11,12,13,14,15,16,17-dodecahydro-3H-cyclopenta[a]phenanthren-17-yl)-2-oxoethoxy)carbonyloxy)-4,5-dihydroxybenzoate]: the EC50 in data set [1] (setting [3]) is 2.35 ± 0.98 µM.

As to `COc1cc(C(=O)OCCCCO[N+](=O)[O-])ccc1OC(=O)OCC(=O)[C@@]12OC(C)(C)O[C@@H]1CC1C3CCC4=CC(=O)C=C[C@]4(C)[C@@]3(F)[C@@H](O)C[C@@]12C` (stereo partly drawn) [Compound (18), 4-(nitrooxy)butyl 4-((2-((9R,10S,11S,13S,16R,17S)-9-fluoro-11-hydroxy-16,17-(1-methylethylidenebis(oxy))-10,13-dimethyl-3-oxo-6,7,8,9,10,11,12,13,14,15,16,17-dodecahydro-3H-cyclopenta[a]phenanthren-17-yl)-2-oxoethoxy)carbonyloxy)-3-methoxybenzoate], in data set [1] (setting [3]), the EC50 is 1.56 µM. In data set [2] (dose equivalent to 10 μg/eye triamcinolone acetonide, intravitreal), the “reduction of VEGF-induced leakage” value amounted to 54.3%.

For the compound `CC1(C)O[C@@H]2C[C@H]3[C@@H]4CCC5=CC(=O)C=C[C@]5(C)[C@@]4(F)[C@@H](O)C[C@]3(C)[C@]2(C(=O)CO)O1` [TAAC, Triamcinolone acetonide], the “EC50 (concentration producing 50% of the maximum relaxation)” value in data set [1] (setting [3]) is listed as “no effect”. The “reduction of VEGF-induced leakage” value in data set [2] (10 μg/eye intravitreal) turned out to be 67.5%.

As to `CCCCOC(=O)c1ccc(OC(=O)OCC(=O)C23OC(C)(C)OC2CC2C4CC(F)C5=CC(=O)C=CC5(C)C4(F)C(O)CC23C)c(OC)c1` [des-nitro analog of compound (1), Butyl 4-((2-((6S,9R,10S,11S,13S,16R,17S)-6,9-difluoro-11-hydroxy-16,17-16,17-(1-methylethylidenebis(oxy))-10,13-dimethyl-3-oxo-6,7,8,9,10,11,12,13,14,15,16,17-dodecahydro-3H-cyclopenta[a]phenanthren-17-yl)-2-oxoethoxy)carbonyloxy)-3-methoxybenzoate], the “IOP compared to compound (1) at 42.4 μg/eye (FIG. 4)” value in the data set on Brown Norway rats is on record as “increase in IOP”.
